Molecules are shown by their SMILES.

What all share (format): functional, Urine
Assay [1] relates to Mus musculus. Briefly: Compound was tested for diuretic activity after oral administration of 64 mg/kg in saline-loaded mice (vehicle control value=0.05).
Assay [2] concerns Mus musculus. The assay can be described thus: Compound was tested for diuretic activity after oral administration of 64 mg/kg in saline-loaded mice (vehicle control value=0.6).
Assay [3] deals with Mus musculus. Briefly: Compound was tested for diuretic activity per os in saline-loaded mice at 64 mg/kg. (vehicle control value=1.22).
Assay [4] deals with Mus musculus. Briefly: Compound was tested for diuretic activity after oral administration of 64 mg/kg in saline-loaded mice (vehicle control value=0.8).
Assay [5] has as its system Mus musculus. Briefly: Compound was tested for diuretic activity after oral administration of 64 mg/kg in saline-loaded mice vehicle control value=0.72).
For assay [6], the system named is Mus musculus. The assay can be described thus: Compound was tested for diuretic activity after oral administration of 64 mg/kg in saline-loaded mice (vehicle control value=0.42).
Assay [7] relates to Mus musculus. Briefly: Compound was tested for diuretic activity after oral administration of 64 mg/kg in saline-loaded mice (vehicle control value=0.68).
For assay [8], the system named is Mus musculus. The assay can be described thus: Compound was tested for diuretic activity after oral administration of 64 mg/kg in saline-loaded mice (vehicle control value=0.27).
Assay [9] relates to Mus musculus. Briefly: Compound was tested for diuretic activity after oral administration of 64 mg/kg in saline-loaded mice (vehicle control value=0.56).
Assay [10] deals with Mus musculus. Briefly: Compound was tested for diuretic activity after oral administration of 64 mg/kg in saline-loaded mice vehicle control value=0.25).
The subject of assay [11] is Mus musculus. The assay can be described thus: Compound was tested for diuretic activity after oral administration of 64 mg/kg in saline-loaded mice (vehicle control value=0.3).
Assay [12] has as its system Mus musculus. Briefly: Compound was tested for diuretic activity after oral administration of 64 mg/kg in saline-loaded mice (vehicle control value=0.2).
Assay [13] has as its system Mus musculus. The assay can be described thus: Compound was tested for diuretic activity after oral administration of 64 mg/kg in saline-loaded mice (vehicle control value=0.1).

`O=C(O)COc1ccc2c(-c3ccccc3F)noc2c1Cl` had a Diuretic activity in assay [1] of 10 m equiv [Na+] 5hr-1kg-1. Turning to `O=C(O)COc1ccc2c(-c3ccccc3Cl)noc2c1Cl`, the Diuretic activity in assay [2] amounted to 9.1 m equiv [Na+] 5hr-1kg-1. On to `O=C(O)COc1ccc2c(-c3ccccc3)nsc2c1Cl`, for which the Diuretic activity in [3] was 2.28 (m equiv [Na+]) 5hr-1 kg-1. With `O=C(O)COc1ccc(C2=NS(=O)(=O)c3ccccc32)c(Cl)c1Cl`, in assay [4], the Diuretic activity was found to be 2.03 m equiv [Na+] 5hr-1kg-1. For `O=C(O)COc1ccc(-c2nsc3ccccc23)c(Cl)c1Cl`, the Diuretic activity in [5] is 1.18 m equiv [Na+] 5hr-1kg-1. In assay [4], `O=C(O)COc1ccc2c(c1Cl)S(=O)(=O)N=C2c1ccccc1F` had a Diuretic activity of 0.18 m equiv [Na+] 5hr-1kg-1. Take `Cn1nc(-c2ccc(OCC(=O)O)c(Cl)c2Cl)c2ccccc21`: the Diuretic activity in assay [6] stood at 0.61 m equiv [Na+] 5hr-1kg-1.

Consider `Cn1nc(-c2ccccc2Cl)c2ccc(OCC(=O)O)c(Cl)c21`, for which the Diuretic activity in [7] was 2.29 m equiv [Na+] 5hr-1kg-1. For `O=C(O)COc1ccc2c(-c3ccccc3F)[nH]nc2c1Cl`, the Diuretic activity in assay [8] was found to be 0.45 m equiv [Na+] 5hr-1kg-1. `O=C(O)COc1ccc(-c2[nH]nc3ccccc23)c(Cl)c1Cl` displayed a Diuretic activity in assay [9] of 0.65 m equiv [Na+] 5hr-1kg-1. Take `O=C(O)COc1ccc2c(-c3ccccc3F)nsc2c1Cl`: the Diuretic activity in assay [10] is 4.59 m equiv [Na+] 5hr-1kg-1. For `C=C(CC)C(=O)c1ccc(OCC(=O)O)c(Cl)c1Cl` [ETHACRYNIC ACID], the Diuretic activity in [11] was 4.14 (m equiv [Na+]) kg-1.

In assay [12], `CC1(c2ccccc2)Cc2cc(OCC(=O)O)c(Cl)c(Cl)c2C1=O` (centres undefined) [INDACRINONE] showed a Diuretic activity of 7.6 m equiv [Na+] 5hr-1kg-1. `O=C(O)COc1ccc(C(=O)c2cccs2)c(Cl)c1Cl` [TICRYNAFEN] showed a Diuretic activity in assay [13] of 3.31 m equiv [Na+] 5hr-1kg-1.

These data come from ChEMBL document CHEMBL1122286, “Heterocyclic oxyacetic acid diuretics: indazole, benzisothiazole, and benzisothiazole 1,1-dioxide analogues of [[7-chloro-3-(2-fluorophenyl)-1,2-benzisoxazol-6-yl]oxy]acetic acid” (1983).
